Assay results published in patent US10434112B2, “Use of agonists of formyl peptide receptor 2 for treating dermatological diseases” (Allergan, Inc., priority 2013, dated 2019).

Molecular target: human FPR2 receptor (Homo sapiens (Human), UniProt P25090)
Assay: FLIPR Ca+2 response in HEK-Gα16 cells stably expressing the human FPR2 receptor
Format: cell-based
Set-up: FPR2 (% eff): unit not given here
Details: Table 4; for FPR2 (% eff): value in brackets, given mostly as fraction
Procedure: FLIPR: HEK-Gα16 cells stably expressing the human FPR2 receptor was utilized. Cells were plated into 384-well poly-D-lysine coated plates at a density of 18,000 cells per well one day prior to use. The growth media was DMEM medium supplemented with 10% fetal bovine serum (FBS), 1% antibiotic-antimycotic, 50 μg/ml hygromycin, and 400 μg/ml geneticin. On the day of the experiment, the cells were washed twice with Hank's Balanced Salt Solution supplemented with 20 mM HEPES (HBSS/hepes buffer). The cells were then dye loaded with 2 μM Fluo-4 diluted in the HBSS/Hepes buffer and incubated at 37° C. for 40 minutes. Extracellular dye was removed by washing the cell plates four times prior to placing the plates in the FLIPR (Fluorometric Imaging Plate Reader, Molecular Devices). Ligands were diluted in HBSS/Hepes buffer and prepared in 384-well microplates. Data for Ca^+2 responses were obtained in relative fluorescence units.

Chain of human FPR2 receptor (P25090 whole entry): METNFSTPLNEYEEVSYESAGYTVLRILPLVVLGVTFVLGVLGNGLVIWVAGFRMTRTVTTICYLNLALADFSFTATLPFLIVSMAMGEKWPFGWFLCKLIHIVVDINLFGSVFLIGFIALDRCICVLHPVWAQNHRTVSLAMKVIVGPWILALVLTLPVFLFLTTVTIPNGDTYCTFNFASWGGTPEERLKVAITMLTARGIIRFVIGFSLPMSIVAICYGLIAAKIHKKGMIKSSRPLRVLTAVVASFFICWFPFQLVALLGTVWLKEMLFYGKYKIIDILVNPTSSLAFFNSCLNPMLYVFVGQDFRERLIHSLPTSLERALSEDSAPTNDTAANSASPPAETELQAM

Row | FPR2 (% eff) | EC50 | Structure (SMILES)
1 | 0.97 |  | CCC[C@H](NC(=O)Nc1ccc(Br)cc1)C(=O)NCC(N)=O [Compound 79, (2S)-N-(2-amino-2-oxoethyl)-2-{[(4-bromophenyl)carbamoyl]amino}pentanamide]
2 | 99 | 14.3 nM | CC1(CCc2ccccc2F)NC(=O)N(NC(=O)Nc2ccc(Br)cc2)C1=O (stereo not drawn) [Compound 80, 1-(4-bromophenyl)-3-{4-[2-(2-fluorophenyl)ethyl]-4-methyl-2,5-dioxoimidazolidin-1-yl}urea]
3 | 0.96 |  | CCC[C@H](NC(=O)Nc1ccc(Br)cc1F)C(=O)NCC(N)=O [Compound 81, (2S)-N-(2-amino-2-oxoethyl)-2-{[(4-bromo-2-fluorophenyl)carbamoyl]amino} pentanamide]
4 | 1.0 |  | CC1(CCc2ccc(F)cc2)NC(=O)N(NC(=O)Nc2ccc(Br)cc2)C1=O (stereo not drawn) [Compound 82, 1-(4-bromophenyl)-3-{4-[2-(4-fluorophenyl)ethyl]-4-methyl-2,5-dioxoimidazolidin-1-yl}urea]
5 | 1.0 |  | CC1(CCc2cccc(F)c2)NC(=O)N(NC(=O)Nc2ccc(Br)cc2)C1=O (stereo not drawn) [Compound 83, 1-(4-bromophenyl)-3-{4-[2-(3-fluorophenyl)ethyl]-4-methyl-2,5-dioxoimidazolidin-1-yl}urea]
6 | 0.95 |  | CC(C)C[C@H](NC(=O)Nc1ccc(Br)cc1F)C(=O)NCC(N)=O [Compound 84, (2S)-N-(2-amino-2-oxoethyl)-2-{[(4-bromo-2-fluorophenyl)carbamoyl]amino}-4-methylpentanamide]
7 | 0.99 |  | CC(=O)CNC(=O)[C@H](CC(C)C)NC(=O)Nc1ccc(Br)cc1F [Compound 85, (2S)-2-{[(4-bromo-2-fluorophenyl)carbamoyl]amino}-4-methyl-N-(2-oxopropyl)pentanamide]
8 | 1.0 |  | CC1(CCc2ccc(O)cc2)NC(=O)N(NC(=O)Nc2ccc(Br)cc2)C1=O (stereo not drawn) [Compound 86, 1-(4-bromophenyl)-3-{4-[2-(4-hydroxyphenyl)ethyl]-4-methyl-2,5-dioxoimidazolidin-1-yl}urea]
9 | 0.95 |  | CC(C)C[C@H](NC(=O)Nc1ccc(Br)cc1F)C(=O)N[C@@H](C)C(=O)O [Compound 87, (2S)-2-{[(2S)-2-{[(4-bromo-2-fluorophenyl)carbamoyl]amino}-4-methylpentanoyl]amino}propanoic acid]
10 | 0.94 |  | CC1(CCc2cccs2)NC(=O)N(NC(=O)Nc2ccc(Br)cc2)C1=O (stereo not drawn) [Compound 88, 1-(4-bromophenyl)-3-{4-methyl-2,5-dioxo-4-[2-(thiophen-2-yl)ethyl]imidazolidin-1-yl}urea]
11 | 0.85 |  | CC1(CCc2ccc(O)cc2)NC(=O)N(NC(=O)Nc2ccc(Br)cc2F)C1=O (stereo not drawn) [Compound 89, 1-(4-bromo-2-fluorophenyl)-3-{4-[2-(4-hydroxyphenyl)ethyl]-4-methyl-2,5-dioxoimidazolidin-1-yl}urea]
12 | 0.97 |  | CC(C)C[C@H](NC(=O)Nc1ccc(Br)cc1)C(=O)N[C@H](C(=O)O)C(C)C [Compound 91, (2S)-2-{[(2S)-2-{[(4-bromophenyl)carbamoyl]amino}-4-methylpentanoyl]amino}-3-methylbutanoic acid]
13 | 1.0 |  | CC(C)C[C@H](NC(=O)Nc1ccc(Br)cc1)C(=O)N[C@H](C(N)=O)C(C)C [Compound 92, (2S)-N-[(2S)-1-amino-3-methyl-1-oxobutan-2-yl]-2-{[(4-bromophenyl)carbamoyl]amino}-4-methylpentanamide]
14 | 0.93 |  | CC(C)C[C@H](NC(=O)Nc1ccc(Br)cc1)C(=O)NCC(C)(C)O [Compound 93, (2S)-2-{[(4-bromophenyl)carbamoyl]amino}-N-(2-hydroxy-2-methylpropyl)-4-methylpentanamide]
15 | 0.96 |  | CC(C)C[C@H](NC(=O)Nc1ccc(Br)cc1)C(=O)NC(CO)CO [Compound 94, (2S)-2-{[(4-bromophenyl)carbamoyl]amino}-N-(1,3-dihydroxypropan-2-yl)-4-methylpentanamide]
16 | 1.0 |  | CC(C)C[C@H](NC(=O)Nc1ccc(Br)cc1)C(=O)N[C@H](C)CO [Compound 96, (2S)-2-{[(4-bromophenyl)carbamoyl]amino}-N-[(2R)-1-hydroxypropan-2-yl]-4-methylpentanamide]

Row | FPR2 (% eff) | EC50 | Structure (SMILES)
17 | 0.95 |  | Cc1ccc(CCC2(C)NC(=O)N(NC(=O)Nc3ccc(Br)cc3)C2=O)o1 (stereo not drawn) [Compound 97, 1-(4-bromophenyl)-3-{4-methyl-4-[2-(5-methylfuran-2-yl)ethyl]-2,5-dioxoimidazolidin-1-yl}urea]
18 | 0.91 |  | CC1(CCc2ccc(O)c(F)c2)NC(=O)N(NC(=O)Nc2ccc(Br)cc2F)C1=O (stereo not drawn) [Compound 98, 1-(4-bromo-2-fluorophenyl)-3-{4-[2-(3-fluoro-4-hydroxyphenyl)ethyl]-4-methyl-2,5-dioxoimidazolidin-1-yl}urea]
19 | 1.0 |  | CC1(CCc2ccc(O)c(F)c2)NC(=O)N(NC(=O)Nc2ccc(Br)cc2)C1=O (stereo not drawn) [Compound 99, 1-(4-bromophenyl)-3-{4-[2-(3-fluoro-4-hydroxyphenyl)ethyl]-4-methyl-2,5-dioxoimidazolidin-1-yl}urea]
20 | 1.0 |  | CCC[C@H](NC(=O)[C@H](CC(C)C)NC(=O)Nc1ccc(Br)cc1)C(=O)OC(C)(C)C [Compound 100, tert-butyl (2S)-2-{[(2S)-2-{[(4-bromophenyl)carbamoyl]amino}-4-methylpentanoyl]amino} pentanoate]
21 | 0.95 |  | CCC[C@H](NC(=O)[C@H](CC(C)C)NC(=O)Nc1ccc(Br)cc1)C(=O)O [Compound 101, (2S)-2-{[(2S)-2-{[(4-bromophenyl)carbamoyl]amino}-4-methylpentanoyl]amino} pentanoic acid]
22 | 0.99 |  | CCC[C@H](NC(=O)[C@H](CC(C)C)NC(=O)Nc1ccc(Br)cc1)C(N)=O [Compound 102, (2S)-N-[(2S)-1-amino-1-oxopentan-2-yl]-2-{[(4-bromophenyl)carbamoyl]amino}-4-methylpentanamide]
23 | 1.0 |  | CC(C)C[C@H](NC(=O)Nc1ccc(Br)cc1)C(=O)N[C@H](C(=O)O)c1ccccc1 [Compound 103, (2S)-{[(2S)-2-{[(4-bromophenyl)carbamoyl]amino}-4-methylpentanoyl]amino} (phenyl)ethanoic acid]
24 | 0.81 |  | CC(C)C[C@H](NC(=O)Nc1ccc(Br)cc1)C(=O)NCc1nnn[nH]1 [Compound 104, (2S)-2-{[(4-bromophenyl)carbamoyl]amino}-4-methyl-N-(1H-tetrazol-5-ylmethyl)pentanamide]
25 | 0.91 |  | CC1(CCc2ccccc2O)NC(=O)N(NC(=O)Nc2ccc(Br)cc2F)C1=O (stereo not drawn) [Compound 106, 1-(4-bromo-2-fluorophenyl)-3-[4-[2-[2-hydroxyphenyl)ethyl]-4-methyl-2,5-dioxoimidazolidin-1-yl}urea]
26 | 0.79 |  | CC1(CCc2cccc(O)c2)NC(=O)N(NC(=O)Nc2ccc(Br)cc2F)C1=O (stereo not drawn) [Compound 107, 1-(4-bromo-2-fluorophenyl)-3-{4-[2-(3-hydroxyphenyl)ethyl]-4-methyl-2,5-dioxoimidazolidin-1-yl}urea]
27 | 100 | 2.1 nM | CC1(CCc2cccc(O)c2)NC(=O)N(NC(=O)Nc2ccc(Br)cc2)C1=O (stereo not drawn) [Compound 108, 1-(4-bromophenyl)-3-{4-[2-(3-hydroxyphenyl)ethyl]-4-methyl-2,5-dioxoimidazolidin-1-yl}urea]
28 | 0.93 |  | CC1(CCc2ccccc2O)NC(=O)N(NC(=O)Nc2ccc(Br)cc2)C1=O (stereo not drawn) [Compound 109, 1-(4-bromophenyl)-3-{4-[2-(2-hydroxyphenyl)ethyl]-4-methyl-2,5-dioxoimidazolidin-1-yl}urea]
29 | 0.98 |  | CC(C)CC(C)(NC(=O)Nc1ccc(Br)cc1)C(=O)O (stereo not drawn) [Compound 110, 2-{[(4-bromophenyl)carbamoyl]amino}-2,4-dimethylpentanoic acid]
30 | 0.99 |  | CC(C)CC(C)(NC(=O)Nc1ccc(Br)cc1)C(=O)NCC(=O)O (stereo not drawn) [Compound 111, [(2-{[(4-bromophenyl)carbamoyl]amino}-2,4-dimethylpentanoyl)amino] acetic acid]
31 | 100 | 18.7 nM | CCC(CC)(NC(=O)Nc1ccc(Br)cc1)C(=O)NCC(=O)O [Compound 113]

Row | Structure (SMILES) | FPR2 (% eff) | EC50
32 | CCOP(=O)(O)CNC(=O)[C@H](CC(C)C)NC(=O)Nc1ccc(Br)cc1 [Compound 105, ethyl hydrogen ({[(2S)-2-{[(4-bromophenyl)carbamoyl]amino}-4-methylpentanoyl]amino}methyl)phosphonate] | 0.88 | 
33 | CCOP(=O)(CNC(=O)[C@@H](NC(=O)Nc1ccc(Br)cc1)[C@@H](C)CC)OCC [Compound 114, diethyl ({[(2S,3S)-2-{[(4-bromophenyl)carbamoyl]amino}-3-methylpentanoyl]amino}methyl)phosphonate] | 1.0 | 
34 | CCOP(=O)(O)CNC(=O)[C@@H](NC(=O)Nc1ccc(Br)cc1)[C@@H](C)CC [Compound 115, ethyl hydrogen ({[(2S,3S)-2-{[(4-bromophenyl)carbamoyl]amino}3-methylpentanoyl]amino}methyl)phosphonate] | 0.88 | 
35 | CC(C)C[C@H](NC(=O)Nc1ccc(Br)cc1)C(=O)NCc1cc(O)no1 [Compound 116, (2S)-2-{[(4-bromophenyl)carbamoyl]amino}-N-[(3-hydroxy-1,2-oxazol-5-yl)methyl]-4-methylpentanamide] | 1.0 | 
36 | CCC[C@H](NC(=O)Nc1ccc(Br)cc1)C(=O)NCP(=O)(OCC)OCC [Compound 117, diethyl ({[(2S)-2-{[(4-bromophenyl)carbamoyl]amino}pentanoyl]amino}methy) phosphonate] | 1.0 | 
